Reference: ChEMBL document CHEMBL5236650, “Nonhydrolyzable d‑phenylalanine-benzoxazole derivatives retain antitubercular activity” (Bioorg Med Chem Lett, 2023)
Values after ≈ are worked out from the molar mass of the structure shown.

Tests used:
[1] = tested on: Mycobacterium tuberculosis; assay: Antitubercular activity against Mycobacterium tuberculosis H37Rv ATCC 27294 cultured in 7H9/ADC/Tw media assessed as inhibition of bacterial growth incubated for 7 days; type: functional; settings: H37Rv ATCC 27294, 168 h, time 7 day
[2] = tested on: Mycobacterium tuberculosis; assay: Antitubercular activity against Mycobacterium tuberculosis H37Rv ATCC 27294 cultured in GAST/Fe media assessed as inhibition of bacterial growth incubated for 7 days; type: functional; settings: H37Rv ATCC 27294, 168 h, time 7 day
[3] = Protein binding in mouse plasma assessed as free fraction; type: ADME, cell-free
[4] = Stability in mouse plasma assessed as half life; type: ADME, cell-free
[5] = Drug metabolism in mouse plasma assessed as 2-(4-methoxyphenyl)benzo[d]oxazol-5-amine formation; type: ADME, cell-free
[6] = tested on: Mycobacterium tuberculosis; assay: Antitubercular activity against Mycobacterium tuberculosis H37Rv ATCC 27294 cultured in 7H9/DPPC/casitone/Tx media assessed as inhibition of bacterial growth incubated for 7 days; type: functional; settings: H37Rv ATCC 27294, 168 h, time 7 day

SMILES | MIC [1] | MIC [2] | fraction unbound [3] | half-life [4] | Drug metabolism [5] | Fu [3] | MIC [6]
COc1ccc(-c2nc3cc(N)ccc3o2)cc1 | ≥ 12.5 µM | – | – | – | – | – | –
N[C@@H](CC(=O)Nc1ccc2oc(-c3ccc(O)cc3)nc2c1)Cc1ccccc1 | 19 µM (≈ 7.36 µg/mL) | 19 µM (≈ 7.36 µg/mL) | – | – | – | – | –
N[C@H](Cc1ccccc1)C(=O)Nc1ccc2oc(-c3ccc(O)cc3)nc2c1 | 1.2 µM (≈ 0.448 µg/mL) | 2.3 µM (≈ 0.859 µg/mL) | – | – | – | – | –
C#CCOc1ccc(-c2nc3cc(NC(=O)[C@H](N)Cc4ccccc4)ccc3o2)cc1 | 1.2 µM (≈ 0.494 µg/mL) | – | < 0.004 | 5 h | – | – | –
COc1ccc(-c2nc3cc(NC(=O)[C@H](N)Cc4ccccc4)ccc3o2)cc1 | 1.56 µM (≈ 0.604 µg/mL) | 1.56 µM (≈ 0.604 µg/mL) | – | 0.417 h | Metabolite_Detected | – | –
COc1ccc(Cc2nc3cc(NC(=O)[C@H](N)Cc4ccccc4)ccc3o2)cc1 | 3.13 µM (≈ 1.26 µg/mL) | 3.13 µM (≈ 1.26 µg/mL) | – | – | – | – | –
COc1ccc(-c2nc3cc(C(=O)NC[C@H](N)Cc4ccccc4)ccc3o2)cc1 | 6.25 µM (≈ 2.51 µg/mL) | – | – | > 4 h | – | 1.2% | 6.25 µM (≈ 2.51 µg/mL)
N[C@H](CCc1ccccc1)C(=O)Nc1ccc2oc(-c3ccc(O)cc3)nc2c1 | 3.13 µM (≈ 1.21 µg/mL) | 3.13 µM (≈ 1.21 µg/mL) | – | – | – | – | –
N[C@H](Cc1ccccc1)C(=O)Nc1ccc2ocnc2c1 | > 50 µM | 25 µM (≈ 7.03 µg/mL) | – | – | – | – | –
N[C@H](Cc1ccccc1)C(=O)Nc1ccc2oc(-c3ccc(OC(F)(F)F)cc3)nc2c1 | 3.13 µM (≈ 1.38 µg/mL) | 3.13 µM (≈ 1.38 µg/mL) | – | – | – | – | –
CCOC(=O)COc1ccc(-c2nc3cc(NC(=O)[C@H](N)Cc4ccccc4)ccc3o2)cc1 | 3.13 µM (≈ 1.44 µg/mL) | 2.3 µM (≈ 1.06 µg/mL) | – | – | – | – | –
COc1ccc(-c2nc3cc(NC(=S)[C@H](N)Cc4ccccc4)ccc3o2)cc1 | 37 µM (≈ 14.9 µg/mL) | 19 µM (≈ 7.67 µg/mL) | – | – | – | – | –
COc1ccc(-c2nc3cc(-n4cc([C@H](N)Cc5ccccc5)nn4)ccc3o2)cc1 | 6.25 µM (≈ 2.57 µg/mL) | 6.25 µM (≈ 2.57 µg/mL) | – | > 4 h | – | 0.65% | –
COc1ccc(-c2nc3cc(NC[C@H](N)Cc4ccccc4)ccc3o2)cc1 | 12.5 µM (≈ 4.67 µg/mL) | 9.4 µM (≈ 3.51 µg/mL) | – | > 4 h | – | < 0.1% | –
COc1ccc(-c2nc3cc(NC(=O)[C@H](N)[C@@H](O)c4ccccc4)ccc3o2)cc1 | > 50 µM | 25 µM (≈ 10.1 µg/mL) | – | – | – | – | –
